Results from ChEMBL document CHEMBL1201862, “PubChem BioAssay data set” (2004).
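Grown in 96-well plates, cells were treated for 48 hours with each compound at five concentrations. Insufficient inhibition: endpoint recorded as highest concentration tested. Abbreviation: GI50, concentration required for 50% inhibition of growth.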 Activity calls are given as the source filed them. Rule as the data show it: active = GI50 up to about 1.1 µM and inactive = higher.

Legend:
Assay in all cases: NCI-60 cell line screen, 48 h
SK-MEL-28 = system: SK-MEL-28
NCI-H226 = system: NCI-H226
SF-539 = system: SF-539
OVCAR-5 = system: OVCAR-5
T47D = system: T47D
DU-145 = system: DU-145
MDA-MB-231 = system: MDA-MB-231
UO-31 = system: UO-31
TK-10 = system: TK-10
OVCAR-3 = system: OVCAR-3
RPMI-8226 = system: RPMI-8226
SF-268 = system: SF-268
SF-295 = system: SF-295
A498 = system: A498
HL-60 = system: HL-60
LOX IMVI = system: LOX IMVI
CAKI-1 = system: CAKI-1
UACC-62 = system: UACC-62
HOP-62 = system: HOP-62
CCRF-CEM = system: CCRF-CEM

Compound: CC(C)(C)n1nc(C2CC2)cc1NC(=O)Nc1ccc(Cl)cc1
- GI50 (SK-MEL-28): > 100 µM (inactive)
- GI50 (NCI-H226): > 100 µM (inactive)
- GI50 (SF-539): > 100 µM (inactive)
- GI50 (OVCAR-5): > 100 µM (inactive)
- GI50 (T47D): > 100 µM (inactive)
- GI50 (DU-145): > 100 µM (inactive)
- GI50 (MDA-MB-231): > 100 µM (inactive)
- GI50 (UO-31): > 100 µM (inactive)
- GI50 (TK-10): > 100 µM (inactive)
- GI50 (OVCAR-3): > 100 µM (inactive)
- GI50 (RPMI-8226): > 100 µM (inactive)
- GI50 (SF-268): > 100 µM (inactive)
- GI50 (SF-295): > 100 µM (inactive)
- GI50 (A498): > 100 µM (inactive)
- GI50 (HL-60): > 100 µM (inactive)
- GI50 (LOX IMVI): > 100 µM (inactive)
- GI50 (CAKI-1): > 100 µM (inactive)
- GI50 (UACC-62): > 100 µM (inactive)
- GI50 (HOP-62): > 100 µM (inactive)

Compound: N=c1oc2ccc(Cl)cc2cc1C(N)=O
- GI50 (SK-MEL-28): 29 µM (inactive)
- GI50 (NCI-H226): 28.2 µM (inactive)
- GI50 (SF-539): 31.3 µM (inactive)
- GI50 (OVCAR-5): 27 µM (inactive)
- GI50 (T47D): 24.8 µM (inactive)
- GI50 (DU-145): 35.9 µM (inactive)
- GI50 (MDA-MB-231): 24.4 µM (inactive)
- GI50 (OVCAR-3): 18.2 µM (inactive)
- GI50 (RPMI-8226): 66.4 µM (inactive)
- GI50 (SF-268): 26.3 µM (inactive)
- GI50 (CCRF-CEM): 40.6 µM (inactive)
- GI50 (A498): 32.7 µM (inactive)
- GI50 (HL-60): 54.2 µM (inactive)
- GI50 (LOX IMVI): 31.8 µM (inactive)
- GI50 (CAKI-1): 34.1 µM (inactive)
- GI50 (UACC-62): 16.8 µM (inactive)

Compound: CCOC1CN=C(Nc2cccc3ccccc23)S1 (centres undefined)
- GI50 (SK-MEL-28): > 10 µM (inactive)
- GI50 (NCI-H226): > 10 µM (inactive)
- GI50 (SF-539): > 10 µM (inactive)
- GI50 (OVCAR-5): > 10 µM (inactive)
- GI50 (T47D): > 10 µM (inactive)
- GI50 (DU-145): > 10 µM (inactive)
- GI50 (MDA-MB-231): > 10 µM (inactive)
- GI50 (TK-10): > 10 µM (inactive)
- GI50 (OVCAR-3): > 10 µM (inactive)
- GI50 (RPMI-8226): > 10 µM (inactive)
- GI50 (SF-268): > 10 µM (inactive)
- GI50 (CCRF-CEM): > 10 µM (inactive)
- GI50 (SF-295): > 10 µM (inactive)
- GI50 (A498): > 10 µM (inactive)
- GI50 (HL-60): > 10 µM (inactive)
- GI50 (LOX IMVI): > 10 µM (inactive)
- GI50 (CAKI-1): > 10 µM (inactive)
- GI50 (UACC-62): > 10 µM (inactive)
- GI50 (HOP-62): > 10 µM (inactive)

Compound: Nc1ccc(-c2nc3cc(F)ccc3s2)cc1CO
- GI50 (SK-MEL-28): > 100 µM (inactive)
- GI50 (NCI-H226): 0.0219 µM (active)
- GI50 (SF-539): 20.1 µM (inactive)
- GI50 (OVCAR-5): 60.8 µM (inactive)
- GI50 (T47D): 0.0116 µM (active)
- GI50 (DU-145): > 78.9 µM (inactive)
- GI50 (MDA-MB-231): 22.9 µM (inactive)
- GI50 (UO-31): 18.1 µM (inactive)
- GI50 (OVCAR-3): 36.2 µM (inactive)
- GI50 (RPMI-8226): > 100 µM (inactive)
- GI50 (SF-268): 23.8 µM (inactive)
- GI50 (CCRF-CEM): 89.5 µM (inactive)
- GI50 (SF-295): 14.4 µM (inactive)
- GI50 (A498): 0.0102 µM (active)
- GI50 (HL-60): > 76.9 µM (inactive)
- GI50 (LOX IMVI): 62.7 µM (inactive)
- GI50 (CAKI-1): > 56.5 µM (inactive)
- GI50 (UACC-62): 19.4 µM (inactive)
- GI50 (HOP-62): 17.5 µM (inactive)

Compound: O=c1n(Cc2ccccc2)c(=O)n2c(=O)n(Cc3ccccc3)c(=O)n12
- GI50 (SK-MEL-28): > 100 µM (inactive)
- GI50 (NCI-H226): > 100 µM (inactive)
- GI50 (SF-539): 39.8 µM (inactive)
- GI50 (T47D): > 100 µM (inactive)
- GI50 (DU-145): > 100 µM (inactive)
- GI50 (MDA-MB-231): > 100 µM (inactive)
- GI50 (UO-31): > 100 µM (inactive)
- GI50 (TK-10): > 100 µM (inactive)
- GI50 (RPMI-8226): > 100 µM (inactive)
- GI50 (SF-268): > 100 µM (inactive)
- GI50 (CCRF-CEM): > 100 µM (inactive)
- GI50 (SF-295): > 100 µM (inactive)
- GI50 (A498): > 100 µM (inactive)
- GI50 (HL-60): > 100 µM (inactive)
- GI50 (LOX IMVI): > 100 µM (inactive)
- GI50 (CAKI-1): > 100 µM (inactive)
- GI50 (UACC-62): > 100 µM (inactive)

Compound: O=C(Nc1ccn(C2CC(O)C(CO)O2)c(=O)n1)c1ccccc1 (centres undefined)
- GI50 (SK-MEL-28): > 100 µM (inactive)
- GI50 (NCI-H226): > 100 µM (inactive)
- GI50 (SF-539): > 100 µM (inactive)
- GI50 (OVCAR-5): > 100 µM (inactive)
- GI50 (T47D): > 100 µM (inactive)
- GI50 (DU-145): > 100 µM (inactive)
- GI50 (MDA-MB-231): > 100 µM (inactive)
- GI50 (TK-10): > 100 µM (inactive)
- GI50 (OVCAR-3): > 100 µM (inactive)
- GI50 (RPMI-8226): > 100 µM (inactive)
- GI50 (SF-268): > 100 µM (inactive)
- GI50 (CCRF-CEM): > 100 µM (inactive)
- GI50 (SF-295): > 100 µM (inactive)
- GI50 (A498): > 100 µM (inactive)
- GI50 (HL-60): > 100 µM (inactive)
- GI50 (LOX IMVI): > 100 µM (inactive)
- GI50 (CAKI-1): > 100 µM (inactive)
- GI50 (UACC-62): > 100 µM (inactive)
- GI50 (HOP-62): > 100 µM (inactive)
